Values of other authors as cited in article PMC8277557 (Bioorganic & Medicinal Chemistry Letters, 2021).
Read-outs that look alike come from different tables or passages of the source.

Columns and labels:
CoV-2 3CLpro = settings: for IC50: read-out: Literature IC50, CoV-2 3CLpro
[1] = in vivo

What does the source list for Boceprevir?
IC50 (CoV-2 3CLpro; ref [16]): 4.13 ± 0.61 µM; IC50 (CoV-2 3CLpro; ref [29]): 5.4 ± 1.53 µM

With CCCC[C@@H](C=O)NC(=O)[C@H](CC(C)C)NC(=O)OCc1ccccc1 [Calpeptin] as the molecule, how does the IC50 (CoV-2 3CLpro; ref [16]) read?
The IC50 was 10.7 ± 0.28 µM.

What about the IC50 (CoV-2 3CLpro; ref [31]) of the same molecule?
Its IC50 is 4.81 ± 0.18 µM.

Which IC50 (CoV-2 3CLpro; ref [20]) does the source give for O=C[C@H](C[C@@H]1CCNC1=O)NC(=O)[C@H](Cc1cccc(F)c1)NC(=O)c1cc2ccccc2[nH]1 [Compound 11b] here?
The IC50 was 0.04 ± 0.002 µM.

With CCOC(=O)/C=C/[C@H](C[C@@H]1CCNC1=O)NC(=O)[C@H](CC(C)C)NC(=O)[C@@H](NC(=O)OCc1ccccc1)C(C)C [Compound 3] as the molecule, how does the Ki (CoV-1 3CLpro; read-out: Literature Ki, CoV-1 3CLpro, ref [19]) read?
The Ki was 0.66 µM.

What does the source list for CCOC(=O)/C=C/[C@H](C[C@@H]1CCNC1=O)NC(=O)[C@@H](CC(=O)[C@@H](NC(=O)c1cc(C)on1)C(C)C)Cc1ccc(F)cc1 [Rupintrivir]?
activity against SARS-CoV-1 3CLpro (CoV-1 3CLpro): inactive; activity against SARS-CoV-2 3CLpro (CoV-2 3CLpro; ref [16], [19]): inactive

For C[C@@H](OC(C)(C)C)[C@H](NC(=O)OCc1ccccc1)C(=O)N[C@@H](CC1CCCCC1)C(=O)N[C@H](C=O)C[C@@H]1CCNC1=O [TG-0205221], which “pharmacokinetic profile in rodents” value [1] is on record?
The value was “favourable pharmacokinetic profile”.

For CC(C)C[C@H](NC(=O)OCc1ccccc1)C(=O)N[C@@H](C[C@@H]1CCNC1=O)C(=O)c1nc2ccccc2s1 [Compound 25c], which IC50 (CoV-1 3CLpro; read-out: Literature IC50) is on record?
Its IC50 is 21 µM.
